We go through 33 molecules from ChEMBL document CHEMBL3860071, “Discovery and structure-activity relationship studies of quinolinone derivatives as potent IL-2 suppressive agents” (Bioorg Med Chem, 2016).

The nature of series [1]: Cytotoxicity against human Jurkat T cells assessed as cell survival at 10 uM measured after 3 days by MTT assay. The class given is toxicity, cell-based. Conditions: read-out: Survival. A general note: Tetrazolium dyes change colour on reduction, which living cells bring about.
The subject of series [2] is Jurkat. Kind of series: Immunosuppressive activity in human PMA/ionomycin stimulated Jurkat T cells assessed as suppression of IL2 production at 1 uM pretreated with cells followed by PMA/ionomycin stimulation measured after 13 hrs by ELISA. The class given is functional.
Series [3] deals with Jurkat. The series is described as follows: Immunosuppressive activity in human PMA/ionomycin stimulated Jurkat T cells assessed as suppression of IL2 production pretreated with cells followed by PMA/ionomycin stimulation measured after 13 hrs by ELISA. The class given is functional, cell-based. Background: ELISA stands for enzyme-linked immunosorbent assay.
The subject of series [4] is Jurkat. The series is described as follows: Immunosuppressive activity in human PMA/ionomycin stimulated Jurkat T cells assessed as suppression of IL2 production at 10 uM pretreated with cells followed by PMA/ionomycin stimulation measured after 13 hrs by ELISA. The class given is functional.
The subject of series [5] is Jurkat. The series is described as follows: Immunosuppressive activity in human anti-CD3/anti-CD28 stimulated Jurkat T cells assessed as suppression of IL2 production at 10 uM pretreated with cells followed by anti-CD3/CD28 stimulation measured after 13 hrs by ELISA. The class given is functional.

As usually defined, the inhibition is the share of the control response that was lost under treatment. By pIC50 is commonly meant the negative decadic logarithm of the IC50, by convention in mol/L.

Molecules are shown by their SMILES. pIC50: −log10 of the molar value.

As to `COc1ccc(Cn2c(=O)c(C(=O)NCCc3ccc(Br)cc3)cc3c(N)cccc32)cc1`, the viability at 72 h, 10 µM in series [1] worked out at 93%. For the same molecule, the inhibition at 1 µM in series [2] was found to be 38%.

As to `O=C(NCCc1ccccc1)c1cc2c([N+](=O)[O-])cccc2n(Cc2ccc(Br)cc2)c1=O`, the viability at 72 h, 10 µM in series [1] was determined as 64%. For the same molecule, the pIC50 in series [3] is 6.11.

Consider `COc1ccc(Cn2c(=O)c(C(=O)NCCc3ccc(O)cc3)cc3c(N)cccc32)cc1`, for which the viability at 72 h, 10 µM in series [1] came out at 97%. Further, the inhibition at 1 µM in series [2] turned out to be 20%.

Take `O=C(NCCc1ccccc1)c1cc2c([N+](=O)[O-])cccc2n(Cc2ccccc2)c1=O`: in series [1], the viability at 72 h, 10 µM is 91%.

On to `COc1ccc(Cn2c(=O)c(C(=O)NCCc3ccc(C)cc3)cc3c(N)cccc32)cc1`, for which, in series [1], the viability at 72 h, 10 µM turned out to be 99%.

In the case of `CCc1ccc(CCNC(=O)c2cc3c(N)cccc3n(Cc3ccc(OC)cc3)c2=O)cc1`, in series [1], the viability at 72 h, 10 µM is 97%.

On to `COc1ccc(Cn2c(=O)c(C(=O)NCCc3ccc4c(c3)OCO4)cc3c(N)cccc32)cc1`, for which the viability at 72 h, 10 µM in series [1] came out at 96%. Besides, the inhibition at 1 µM in series [2] stood at 31%.

`COc1ccc(Cn2c(=O)c(C(=O)NCCc3ccccc3)cc3c([N+](=O)[O-])cccc32)cc1`: the viability at 72 h, 10 µM in series [1] was determined as 96%. In addition, in series [3], the pIC50 was 6.03.

Take `COc1ccc(Cn2c(=O)c(C(=O)NCc3ccccc3)cc3c(N)cccc32)cc1`: the viability at 72 h, 10 µM in series [1] came out at 98%. Further, the inhibition at 1 µM in series [2] came to 30%.

In the case of `Cc1ccc(Cn2c(=O)c(C(=O)NCCc3ccccc3)cc3c([N+](=O)[O-])cccc32)cc1`, the viability at 72 h, 10 µM in series [1] turned out to be 81%.

For the molecule `COc1ccc(Cn2c(=O)c(C(=O)NCCc3ccccc3)cc3c(N)cccc32)cc1`, in series [1], the viability at 72 h, 10 µM was determined as 98%. Besides, in series [2], the inhibition at 1 µM is 41%.

Take `CC(C)(C)c1ccc(Cn2c(=O)c(C(=O)NCCc3ccccc3)cc3c([N+](=O)[O-])cccc32)cc1`: the viability at 72 h, 10 µM in series [1] is 94%. For the same molecule, the pIC50 in series [3] is 6.41.

`O=C(NCCc1ccccc1)c1cc2c([N+](=O)[O-])cccc2n(Cc2ccc(Cl)cc2)c1=O`: in series [1], the viability at 72 h, 10 µM was determined as 97%. In series [2], the inhibition at 1 µM was 39%.

Consider `COc1ccc(Cn2c(=O)c(C(=O)NCCCc3ccccc3)cc3c(N)cccc32)cc1`, for which, in series [1], the viability at 72 h, 10 µM came out at 97%. For the same molecule, the inhibition at 1 µM in series [2] was determined as 11%.

As to `O=C(NCCc1ccccc1)c1cc2c([N+](=O)[O-])cccc2n(Cc2ccc([N+](=O)[O-])cc2)c1=O`, the viability at 72 h, 10 µM in series [1] was found to be 97%. The pIC50 in series [3] was 6.45.

In the case of `COc1ccc(Cn2c(=O)c(C(=O)NCC(C)C)cc3c(N)cccc32)cc1`, the viability at 72 h, 10 µM in series [1] was 99%.

Take `CCc1ccc(Cn2c(=O)c(C(=O)NCCc3ccccc3)cc3c(Cl)cccc32)cc1`: the viability at 72 h, 10 µM in series [1] was 97%. For the same molecule, in series [3], the negative logarithm of the IC50 (pIC50) is 6.40.

For `COc1ccc(CCNC(=O)c2cc3c(N)cccc3n(Cc3ccc(OC)cc3)c2=O)cc1`, in series [1], the viability at 72 h, 10 µM came out at 96%. For the same molecule, the inhibition at 1 µM in series [2] was 25%.

Consider `O=C(NCCc1ccccc1)c1cc2c([N+](=O)[O-])cccc2n(Cc2ccc(F)cc2)c1=O`, for which the viability at 72 h, 10 µM in series [1] came out at 98%. Moreover, the pIC50 in series [3] is 6.14.

With `N#Cc1ccc(Cn2c(=O)c(C(=O)NCCc3ccccc3)cc3c([N+](=O)[O-])cccc32)cc1`, the viability at 72 h, 10 µM in series [1] was determined as 95%. Moreover, the inhibition at 1 µM in series [2] amounted to 28%.

For the molecule `C/C=C/C[C@@H](C)[C@@H](O)[C@H]1C(=O)N[C@@H](CC)C(=O)N(C)CC(=O)N(C)[C@@H](CC(C)C)C(=O)N[C@@H](C(C)C)C(=O)N(C)[C@@H](CC(C)C)C(=O)N[C@@H](C)C(=O)N[C@H](C)C(=O)N(C)[C@@H](CC(C)C)C(=O)N(C)[C@@H](CC(C)C)C(=O)N(C)[C@@H](C(C)C)C(=O)N1C` [CYCLOSPORINE], the pIC50 in series [3] was 7.96.

Take `COc1ccc(Cn2c(=O)c(C(=O)NCCc3ccccc3)cc3c(Cl)cccc32)cc1`: in series [1], the viability at 72 h, 10 µM worked out at 87%. Besides, the inhibition at 1 µM in series [2] turned out to be 44%.

Turning to `COc1ccc(Cn2c(=O)c(C(=O)NCCc3ccc(Cl)cc3)cc3c(N)cccc32)cc1`, the viability at 72 h, 10 µM in series [1] was determined as 96%. The inhibition at 1 µM in series [2] came to 19%.

With `CCN(C(=O)c1c(O)c2c(Cl)cccc2n(C)c1=O)c1ccccc1` [LAQUINIMOD], in series [4], the inhibition at 10 µM was determined as 16%.

With `COc1ccc(Cn2c(=O)c(C(=O)NCCc3ccc(OC)c(O)c3)cc3c(N)cccc32)cc1`, in series [1], the viability at 72 h, 10 µM turned out to be 99%. The inhibition at 1 µM in series [2] was determined as 37%.

For the molecule `COCCCNC(=O)c1cc2c(N)cccc2n(Cc2ccc(OC)cc2)c1=O`, the viability at 72 h, 10 µM in series [1] was determined as 97%.

Turning to `CC(C)c1ccc(Cn2c(=O)c(C(=O)NCCc3ccccc3)cc3c(Cl)cccc32)cc1`, the viability at 72 h, 10 µM in series [1] stood at 91%. Besides, in series [3], the negative-log IC50 (pIC50) is 6.59.

With `CCc1ccc(Cn2c(=O)c(C(=O)NCCc3ccccc3)cc3c([N+](=O)[O-])cccc32)cc1`, in series [1], the viability at 72 h, 10 µM was determined as 96%. In series [3], the negative logarithm of the IC50 (pIC50) was 6.81. Also, the inhibition at 10 µM in series [5] was determined as 81%.

Consider `COc1ccc(Cn2c(=O)c(C(=O)NCCc3ccccc3)cc3ccc([N+](=O)[O-])cc32)cc1`, for which, in series [1], the viability at 72 h, 10 µM was 95%.

For `O=C(NCCc1ccccc1)c1cc2c([N+](=O)[O-])cccc2n(Cc2ccc(OC(F)(F)F)cc2)c1=O`, in series [1], the viability at 72 h, 10 µM turned out to be 96%. In addition, the negative logarithm of the IC50 (pIC50) in series [3] was 6.80. Also, the inhibition at 10 µM in series [5] came out at 79%.

`COc1ccc(Cn2c(=O)c(C(=O)NCCc3ccncc3)cc3c(N)cccc32)cc1`: the viability at 72 h, 10 µM in series [1] worked out at 93%. Moreover, the inhibition at 1 µM in series [2] was found to be 16%.

For the molecule `COc1ccc(Cn2c(=O)c(C(=O)NCCc3ccc(O)c(O)c3)cc3c(N)cccc32)cc1`, the viability at 72 h, 10 µM in series [1] was found to be 98%. In addition, the inhibition at 1 µM in series [2] was determined as 14%.

Take `COc1cccc(Cn2c(=O)c(C(=O)NCCc3ccccc3)cc3c([N+](=O)[O-])cccc32)c1`: the viability at 72 h, 10 µM in series [1] amounted to 97%. For the same molecule, in series [2], the inhibition at 1 µM amounted to 16%.
